For this assay, the system named is BDF1 mice, P388 leukemia ip, median survival T/C. Briefly: NCI In Vivo Anticancer Drug Screen. Data for tumor model P388 Leukemia (intraperitoneal) in B6D2F1 (BDF1) mice. Conditions: endpoint: median survival time, higher = longer survival. A digest of the protocol:
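Each value expresses how treatment altered survival: treated-mouse outcome over vehicle-mouse outcome, both groups bearing the transplanted tumour.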

Where [1] appears, read: dose: 100.0 mg/kg/injection, schedule: Q01DX009 (ip), vehicle: saline with Tween-80.
Setting [2] is: dose: 200.0 mg/kg/injection, schedule: Q01DX009 (ip), vehicle: saline with Tween-80.
Setting [3] is: dose: 400.0 mg/kg/injection, schedule: Q01DX009 (ip), vehicle: saline with Tween-80.
Where [4] appears, read: dose: 100.0 mg/kg/injection, schedule: Q04DX003 (ip), vehicle: saline with Tween-80.
[5] abbreviates: dose: 200.0 mg/kg/injection, schedule: Q04DX003 (ip), vehicle: saline with Tween-80.
[6] abbreviates: dose: 400.0 mg/kg/injection, schedule: Q04DX003 (ip), vehicle: saline with Tween-80.
[7] abbreviates: dose: 25.0 mg/kg/injection, schedule: Q01DX009 (ip), vehicle: saline with Tween-80.
[8] abbreviates: dose: 50.0 mg/kg/injection, schedule: Q01DX009 (ip), vehicle: saline with Tween-80.
Where [9] appears, read: dose: 50.0 mg/kg/injection, schedule: Q01DX009 (ip), vehicle: saline.
Setting [10] is: dose: 100.0 mg/kg/injection, schedule: Q01DX009 (ip), vehicle: saline.
Where [11] appears, read: dose: 200.0 mg/kg/injection, schedule: Q01DX009 (ip), vehicle: saline.
Setting [12] is: dose: 100.0 mg/kg/injection, schedule: Q01DX009 (ip), vehicle: Klucel (hydroxypropylcellulose) (HPC).
Where [13] appears, read: dose: 200.0 mg/kg/injection, schedule: Q01DX009 (ip), vehicle: Klucel (hydroxypropylcellulose) (HPC).

Several values for one entry are separate records, joined by “and”; a condition that tells them apart may be missing. Identical values can stand only once. Inconclusive results and toxic doses are left out.

On to `CCCCCCCCCCCC(=O)c1ccc(Cl)cc1`, for which the T/C was 91 % of control under setting [1], 92 % of control under setting [2] and 109 % of control under setting [3].

On to `O=c1c2ccccc2nc(-c2ccccc2Cl)n1/N=C/c1cccc([N+](=O)[O-])c1`, for which the T/C was 93 % of control under setting [1] and 100 % of control under setting [2].

Turning to `N=C(N)SC1c2cc(Cl)ccc2-c2c(Cl)cc(Cl)cc21` (centres undefined), the T/C was 100 % of control (dose: 3.1 mg/kg/injection, schedule: Q01DX010 (ip), vehicle: carboxymethylcellulose (CMC)); 110 % of control (dose: 6.2 mg/kg/injection, schedule: Q01DX010 (ip), vehicle: carboxymethylcellulose (CMC)); 100 % of control (dose: 12.5 mg/kg/injection, schedule: Q01DX009 (ip), vehicle: Klucel (hydroxypropylcellulose) (HPC)); 110 % of control (dose: 12.5 mg/kg/injection, schedule: Q01DX010 (ip), vehicle: carboxymethylcellulose (CMC)); 120 % of control (dose: 25.0 mg/kg/injection, schedule: Q01DX009 (ip), vehicle: Klucel (hydroxypropylcellulose) (HPC)); 150 % of control (dose: 100.0 mg/kg/injection, schedule: Q01DX010 (ip), vehicle: carboxymethylcellulose (CMC)).

In the case of `CC(=O)c1ccccc1NC=O`, the T/C under setting [4] is 100 % of control, the T/C under setting [5] was 104 % of control and the T/C under setting [6] was 108 % of control.

With `CN(C)c1cc(=O)c2c(ccc3ccccc32)o1`, the T/C is 117 % of control (dose: 6.25 mg/kg/injection, schedule: Q01DX009 (ip), vehicle: saline with Tween-80); 97 % of control (dose: 12.5 mg/kg/injection, schedule: Q01DX009 (ip), vehicle: saline with Tween-80); 106 % of control under setting [7]; 106 % of control under setting [8].

On to `CCCC1CC[N-]CC1.CCCC1CC[N-]CC1.CCCC1CC[N-]CC1.CCCC1CC[N-]CC1.O=C([O-])C(=O)[O-].O=C([O-])C(=O)[O-].[Cl][Rh][Cl].[Nb+5].[O-][O-].[O-][O-]`, for which the T/C runs as follows: (dose: 12.5 mg/kg/injection, schedule: Q01DX009 (ip), vehicle: saline) 112 % of control; (dose: 25.0 mg/kg/injection, schedule: Q01DX009 (ip), vehicle: saline) 91 % of control and 100 % of control; under setting [9], 87 % of control and 97 % of control and 98 % of control; under setting [10], 87 % of control; under setting [11], 99 % of control; (dose: 400.0 mg/kg/injection, schedule: Q01DX009 (ip), vehicle: saline) 91 % of control and 94 % of control.

For the compound `O=C(Nc1ccccc1)C1=C(Nc2ccccc2)CSC1`, the T/C runs as follows: under setting [7], 100 % of control; (dose: 25.0 mg/kg/injection, schedule: Q04DX003 (ip), vehicle: saline with Tween-80) 99 % of control; under setting [8], 91 % of control; (dose: 50.0 mg/kg/injection, schedule: Q04DX003 (ip), vehicle: saline with Tween-80) 99 % of control; under setting [1], 94 % of control; under setting [4], 96 % of control. The T/C under setting [2] was 102 % of control, the T/C under setting [5] was 105 % of control, the T/C under setting [3] is 110 % of control and the T/C under setting [6] was 103 % of control.

Turning to `O=C1C=C(NC2CCCCC2)CCC1`, the T/C by setting is: under setting [9], 96 % of control; under setting [10], 99 % of control; under setting [11], 99 % of control.

Turning to `C[C@]12C=CC(=O)C=C1CC[C@@H]1[C@@H]2[C@@H](O)C[C@@]2(C)[C@H]1CC[C@]2(O)C(=O)COC(=O)CCC1CCCC1`, the T/C by setting is: under setting [7], 113 % of control; under setting [8], 109 % of control; under setting [1], 95 % of control and 100 % of control.

As to `S=C(S)Nc1cccc2ccccc12`, the T/C under setting [1] was 100 % of control; the T/C under setting [4] is 90 % of control; the T/C under setting [2] was 100 % of control; the T/C under setting [5] is 109 % of control; the T/C under setting [3] is 105 % of control; the T/C under setting [6] is 95 % of control.

Consider `CNc1cccnc1/C=N/NC(N)=S`, for which the T/C under setting [8] was 194 % of control and the T/C under setting [1] is 181 % of control.

With `NNC(=O)C(=O)NCc1ccco1`, the T/C under setting [8] was 98 % of control.

In the case of `Cc1noc(N)c1N`, the T/C (dose: 100.0 mg/kg/injection, schedule: Q01DX009 (ip), vehicle: water) is 110 % of control; the T/C (dose: 100.0 mg/kg/injection, schedule: Q04DX003 (ip), vehicle: water) is 109 % of control; the T/C (dose: 200.0 mg/kg/injection, schedule: Q01DX009 (ip), vehicle: water) was 110 % of control and 117 % of control; the T/C (dose: 200.0 mg/kg/injection, schedule: Q04DX003 (ip), vehicle: water) was 100 % of control; the T/C (dose: 400.0 mg/kg/injection, schedule: Q01DX009 (ip), vehicle: water) is 106 % of control; the T/C (dose: 400.0 mg/kg/injection, schedule: Q04DX003 (ip), vehicle: water) was 100 % of control. The T/C (dose: 600.0 mg/kg/injection, schedule: Q01DX009 (ip), vehicle: water) was 122 % of control.

With `CCOC(=O)C1C(=O)C2CCc3c(ccc4ccccc34)N2C1=O` (centres undefined), the T/C (dose: 50.0 mg/kg/injection, schedule: Q01DX009 (ip), vehicle: Klucel (hydroxypropylcellulose) (HPC)) is 100 % of control; the T/C (dose: 50.0 mg/kg/injection, schedule: Q04DX003 (ip), vehicle: Klucel (hydroxypropylcellulose) (HPC)) is 95 % of control; the T/C under setting [12] was 110 % of control; the T/C (dose: 100.0 mg/kg/injection, schedule: Q04DX003 (ip), vehicle: Klucel (hydroxypropylcellulose) (HPC)) is 95 % of control; the T/C under setting [13] is 100 % of control; the T/C (dose: 200.0 mg/kg/injection, schedule: Q04DX003 (ip), vehicle: Klucel (hydroxypropylcellulose) (HPC)) was 100 % of control.

As for `CCOC(=O)/C(=C(/N)C1OC(COC(c2ccccc2)(c2ccccc2)c2ccccc2)C2OC(C)(C)OC12)C1CC(=O)N(C)C1=O` (centres undefined), the T/C by setting is: under setting [8], 99 % of control; under setting [1], 90 % of control.

Regarding `CC(Cc1ccc(O)c(O)c1)C(C)Cc1ccc(O)c(O)c1` (centres undefined), the T/C is, setting by setting: (dose: 50.0 mg/kg/injection, schedule: Q01DX010 (ip), vehicle: saline) 100 % of control; (dose: 100.0 mg/kg/injection, schedule: Q01DX010 (ip), vehicle: saline) 104 % of control; (dose: 200.0 mg/kg/injection, schedule: Q01DX010 (ip), vehicle: saline) 104 % of control.

Consider `CC(C)n1cnc2c(Cl)ncnc21`, for which the T/C was 100 % of control under setting [1], 104 % of control under setting [4], 95 % of control under setting [5] and 90 % of control under setting [6].

For `Cc1cc2nc(CO)[nH]c2cc1C`, the T/C is 100 % of control under setting [12]; 86 % of control under setting [13]; 95 % of control (dose: 400.0 mg/kg/injection, schedule: Q01DX009 (ip), vehicle: Klucel (hydroxypropylcellulose) (HPC)).

The record behind these values is PubChem BioAssay AID328 (DTP/NCI, 2004).
